# Measurements published in ChEMBL document CHEMBL1201862, “PubChem BioAssay data set” (2004).
# The source made the active and inactive calls.
# What was measured:
# [1] = molecular target: Envelope glycoprotein gp160 (Human immunodeficiency virus 1, UniProt Q6QLK5); assay: inhibitors of HIV fusion peptide binding, primary screen, biochemical, uHTS, fluorescence dequenching (AID 1986)
# [2] = Luminescence Cell-Based Dose Confirmation HTS to Identify Activators of 5'UTR Stem-Loop Driven Alpha-Synuclein mRNA Translation in H4 Neuroglioblastoma Cells. [Related pubchem assays: 1829 (Project Summary), 1814 (Primary HTS)]; format: functional
# [3] = Luminescence Cell-Based Dose Response HTS to Identify Activators of Luciferase Translation or Activity in H4 […] Cells. [Related pubchem assays: 1829 (Project Summary), 1814 (Primary HTS)]; format: functional
# H4 = assay: Luminescence Cell-Based Dose Response HTS to Identify Activators of 5'UTR Stem-Loop Driven Prion Protein mRNA Translation in H4 Neuroglioblastoma Cells. [Related pubchem assays: 1829 (Project Summary), 1814 (Primary HTS)]; format: functional; conditions: Homo sapiens
# [4] = molecular target: T1, Corticotropin-releasing factor receptor 2/Corticotropin-releasing factor-binding protein (Homo sapiens, UniProt P24387+Q13324); assay: Dose Response confirmation of uHTS hits for small molecule antagonists of the CRF-binding protein and CRF-R2 receptor complex.; format: functional; conditions: read-out: IC50_Mean
# T1 sequence (Q13324 whole entry): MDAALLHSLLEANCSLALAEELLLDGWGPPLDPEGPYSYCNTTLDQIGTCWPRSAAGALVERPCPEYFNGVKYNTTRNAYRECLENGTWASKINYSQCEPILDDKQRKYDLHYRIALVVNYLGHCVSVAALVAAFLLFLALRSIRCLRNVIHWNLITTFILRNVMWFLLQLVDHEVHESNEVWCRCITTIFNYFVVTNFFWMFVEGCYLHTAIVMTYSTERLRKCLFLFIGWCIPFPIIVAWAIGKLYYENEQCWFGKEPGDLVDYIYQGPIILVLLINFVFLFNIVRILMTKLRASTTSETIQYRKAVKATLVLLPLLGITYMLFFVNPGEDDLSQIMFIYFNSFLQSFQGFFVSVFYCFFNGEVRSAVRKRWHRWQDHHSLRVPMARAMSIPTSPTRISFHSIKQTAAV
# T1 sequence (P24387 whole entry): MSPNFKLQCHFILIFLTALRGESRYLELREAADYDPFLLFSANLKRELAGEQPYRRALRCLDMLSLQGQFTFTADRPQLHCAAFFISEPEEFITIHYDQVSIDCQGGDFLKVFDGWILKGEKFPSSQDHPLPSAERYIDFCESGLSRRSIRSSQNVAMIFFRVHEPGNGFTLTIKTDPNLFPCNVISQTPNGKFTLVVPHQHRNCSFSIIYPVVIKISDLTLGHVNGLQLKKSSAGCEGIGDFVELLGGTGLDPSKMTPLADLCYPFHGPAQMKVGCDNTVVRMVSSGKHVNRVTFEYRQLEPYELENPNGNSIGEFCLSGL
# [5] = molecular target: T1, Corticotropin-releasing factor receptor 2/Corticotropin-releasing factor-binding protein; assay: activators of CRF receptor 2 with binding protein – uHTS hits, confirmation (AID 602473); format: functional; conditions: read-out: EC50_Mean
# [6] = CRF-BP/CRF-R2 complex antagonists, dose response, cell-based, uHTS hits, 384-well (AID 651639); format: functional, Homo sapiens; conditions: read-out: IC50_Mean
# [7] = molecular target: NACHT, LRR and PYD domains-containing protein 3 (Homo sapiens, UniProt Q96P20); assay: NALP3 inhibitors in yeast, dose response, luminescent (AID 488799); format: functional
# [8] = molecular target: T2, Mannose-6-phosphate isomerase (Homo sapiens, UniProt P34949); assay: PMI enzyme inhibitors, confirmation, biochemical, fluorescence intensity (AID 1535)
# T2 sequence (P34949 whole entry): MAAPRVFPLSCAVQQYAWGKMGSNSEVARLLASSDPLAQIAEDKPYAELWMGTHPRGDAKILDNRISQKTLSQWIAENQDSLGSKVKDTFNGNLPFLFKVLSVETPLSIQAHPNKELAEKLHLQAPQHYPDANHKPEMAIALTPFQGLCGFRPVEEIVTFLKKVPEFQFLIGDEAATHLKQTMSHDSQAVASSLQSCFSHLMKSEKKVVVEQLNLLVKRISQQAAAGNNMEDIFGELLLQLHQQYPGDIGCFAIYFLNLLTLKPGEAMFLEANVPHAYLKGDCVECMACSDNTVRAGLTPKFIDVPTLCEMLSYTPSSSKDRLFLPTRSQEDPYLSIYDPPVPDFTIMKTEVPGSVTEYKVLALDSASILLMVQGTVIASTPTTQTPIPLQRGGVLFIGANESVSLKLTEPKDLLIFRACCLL
# Phosphomannomutase 2 = Phosphomannomutase 2 (Homo sapiens, UniProt O15305); assay: Counter screen SAR assay for PMM2 inhibitors via a fluorescence intensity assay. [Related pubchem assays (depositor defined):AID1545, AID1574]
# [9] = molecular target: Phosphoethanolamine/phosphocholine phosphatase (Homo sapiens, UniProt Q8TCT1); assay: SAR assay for compounds that inhibit PHOSPHO1. [Related pubchem assays (depositor defined):AID1545, AID1565, AID1574]
# [10] = molecular target: Eukaryotic translation initiation factor 4E (Mus musculus, UniProt P63073); assay: eIF4E–eIF4G protein interaction inhibitors, dose response, biochemical, TR-FRET (AID 855); format: functional;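 further: potency for disrupting eIF4E binding to eIF4GI seen as loss of FRET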
# [11] = molecular target: Melanin-concentrating hormone receptor 1 (Homo sapiens, UniProt Q99705); assay: Late-stage fluorescence-based counterscreen for antagonists of the G-protein coupled receptor 7 (GPR7): cell-based dose response assay to identify antagonists of the melanin-concentrating hormone receptor 1 (MCHR1). [Related pubchem assays (depositor defined):AID1861, AID1880, AID1952, AID2148, AID2251, AID2257, AID485339]; format: functional;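 further: stimulated with 30 nM MCH peptide agonist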
# [12] = molecular target: T3, Neuropeptides B/W receptor type 1 (Homo sapiens, UniProt P48145); assay: GPR7 antagonist potency, late-stage follow-up, cell-based, fluorescence, dose response (AID 463251); format: functional
# T3 sequence (P48145 whole entry): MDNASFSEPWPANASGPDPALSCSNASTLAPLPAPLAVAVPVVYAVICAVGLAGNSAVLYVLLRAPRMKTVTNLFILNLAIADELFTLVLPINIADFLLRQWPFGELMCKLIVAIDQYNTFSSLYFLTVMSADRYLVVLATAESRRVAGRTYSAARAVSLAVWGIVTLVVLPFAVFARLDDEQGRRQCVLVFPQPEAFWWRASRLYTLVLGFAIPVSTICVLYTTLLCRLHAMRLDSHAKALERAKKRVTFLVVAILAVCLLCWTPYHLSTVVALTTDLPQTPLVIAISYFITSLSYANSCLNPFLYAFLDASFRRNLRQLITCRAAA
# [13] = molecular target: T4, Voltage-gated N-type calcium channel alpha-1B subunit/Amyloid beta A4 precursor protein-binding family A member 1 (Homo sapiens, UniProt Q00975+Q02410); assay: disruptors of Mint-PDZ/N-type channel peptide interaction – biochemical, HTRF, set 2, SAR follow-up (AID 434980); format: functional
# [14] = molecular target: T4, Voltage-gated N-type calcium channel alpha-1B subunit/Amyloid beta A4 precursor protein-binding family A member 1; assay: disruptors of Mint-PDZ/N-type channel peptide interaction – biochemical, HTRF, SAR follow-up (AID 2489); format: functional
# [15] = NIH-3T3 fibroblast cytotoxicity, dose response, cytotoxicity control, cell-based, fluorescence, Alamar Blue, secondary assay (AID 2327); format: functional;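 further: NIH-3T3 mouse fibroblasts cultured with fluconazole at 8 µg/mL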
# Bcl-2-like protein 10 = molecular target: T5, Bcl-2-like protein 10 (Homo sapiens, UniProt Q9HD36); assay: displacers of TR3 peptide from Bcl-B, primary screen, selectivity assay for Bfl-1 inhibitor project, biochemical, fluorescence polarization, FITC-TR3 peptide (AID 748);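 further: fluorescence polarization from a fluorescein-labelled TR3 peptide binding purified Bcl-B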
# T5 sequence (Q9HD36 whole entry): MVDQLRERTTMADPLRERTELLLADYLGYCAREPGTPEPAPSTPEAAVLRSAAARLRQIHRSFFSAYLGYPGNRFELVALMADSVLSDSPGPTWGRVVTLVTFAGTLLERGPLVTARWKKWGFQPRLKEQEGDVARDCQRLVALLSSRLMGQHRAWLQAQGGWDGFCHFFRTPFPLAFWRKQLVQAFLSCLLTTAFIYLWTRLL
# [16] = C. albicans growth with fluconazole, confirmation, fluorescence, retest (AID 2467); format: functional, cell-based
# [17] = molecular target: T6, Histone-lysine N-methyltransferase NSD2 (Homo sapiens, UniProt O96028); format: biochemical
# T6 sequence (O96028 whole entry): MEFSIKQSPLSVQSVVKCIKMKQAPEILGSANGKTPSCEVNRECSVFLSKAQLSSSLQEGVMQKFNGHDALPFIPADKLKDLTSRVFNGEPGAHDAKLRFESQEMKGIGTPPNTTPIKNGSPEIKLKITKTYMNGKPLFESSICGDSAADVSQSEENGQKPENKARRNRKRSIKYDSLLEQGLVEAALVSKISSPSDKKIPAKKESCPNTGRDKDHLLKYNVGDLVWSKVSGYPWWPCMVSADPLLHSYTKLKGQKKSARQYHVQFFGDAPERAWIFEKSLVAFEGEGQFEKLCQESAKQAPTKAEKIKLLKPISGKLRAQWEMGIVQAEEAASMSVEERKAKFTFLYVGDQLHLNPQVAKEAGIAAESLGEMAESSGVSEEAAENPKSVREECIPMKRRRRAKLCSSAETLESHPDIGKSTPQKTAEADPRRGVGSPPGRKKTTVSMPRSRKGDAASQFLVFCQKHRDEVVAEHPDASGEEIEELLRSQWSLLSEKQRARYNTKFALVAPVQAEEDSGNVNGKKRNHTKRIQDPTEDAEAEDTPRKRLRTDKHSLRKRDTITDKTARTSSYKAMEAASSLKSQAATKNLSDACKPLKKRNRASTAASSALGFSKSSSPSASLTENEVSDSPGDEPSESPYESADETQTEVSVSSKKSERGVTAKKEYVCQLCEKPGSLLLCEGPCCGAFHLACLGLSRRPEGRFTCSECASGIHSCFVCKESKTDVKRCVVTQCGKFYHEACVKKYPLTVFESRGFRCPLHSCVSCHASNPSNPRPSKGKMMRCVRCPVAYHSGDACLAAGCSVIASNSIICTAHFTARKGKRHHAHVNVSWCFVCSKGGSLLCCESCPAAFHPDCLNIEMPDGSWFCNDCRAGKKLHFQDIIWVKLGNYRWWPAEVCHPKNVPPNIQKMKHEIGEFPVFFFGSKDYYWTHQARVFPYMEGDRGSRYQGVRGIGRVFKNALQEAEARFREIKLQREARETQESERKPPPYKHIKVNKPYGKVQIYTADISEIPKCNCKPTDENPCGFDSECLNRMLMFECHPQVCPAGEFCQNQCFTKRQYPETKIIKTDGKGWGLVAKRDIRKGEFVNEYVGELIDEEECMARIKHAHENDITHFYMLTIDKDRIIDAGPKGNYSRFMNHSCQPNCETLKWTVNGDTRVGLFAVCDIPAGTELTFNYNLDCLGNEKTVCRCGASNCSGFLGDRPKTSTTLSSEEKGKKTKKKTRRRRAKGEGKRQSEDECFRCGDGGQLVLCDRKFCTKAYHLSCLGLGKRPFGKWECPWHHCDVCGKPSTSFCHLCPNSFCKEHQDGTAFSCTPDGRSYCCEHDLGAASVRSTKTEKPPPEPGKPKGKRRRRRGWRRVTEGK
# [18] = human group III sPLA2 inhibitors, dose response, biochemical, QFRET, IC50 (AID 743457);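 further: green fluorescence rise as the enzyme cleaves BODIPY PC-A2 in liposomes; potency for inhibition of the enzyme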
# Protein Tat = molecular target: T7, Protein Tat (Human immunodeficiency virus type 1 group M subtype B (isolate HXB2)(HIV-1), UniProt P04608); format: functional;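 further: tat binding to TAR RNA read out by fluorescence polarization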
# T7 sequence (P04608 whole entry): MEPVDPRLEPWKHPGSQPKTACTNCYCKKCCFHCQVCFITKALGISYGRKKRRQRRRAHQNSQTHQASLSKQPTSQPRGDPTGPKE
# [19] = THP-1 cell cytotoxicity, dose response, cytotoxicity control for Vif-APOBEC3G degradation inhibitor project, THP-1 cells (AID 1117359); format: functional; conditions: Human immunodeficiency virus 1, THP-1
# T4 sequence (Q00975 whole entry): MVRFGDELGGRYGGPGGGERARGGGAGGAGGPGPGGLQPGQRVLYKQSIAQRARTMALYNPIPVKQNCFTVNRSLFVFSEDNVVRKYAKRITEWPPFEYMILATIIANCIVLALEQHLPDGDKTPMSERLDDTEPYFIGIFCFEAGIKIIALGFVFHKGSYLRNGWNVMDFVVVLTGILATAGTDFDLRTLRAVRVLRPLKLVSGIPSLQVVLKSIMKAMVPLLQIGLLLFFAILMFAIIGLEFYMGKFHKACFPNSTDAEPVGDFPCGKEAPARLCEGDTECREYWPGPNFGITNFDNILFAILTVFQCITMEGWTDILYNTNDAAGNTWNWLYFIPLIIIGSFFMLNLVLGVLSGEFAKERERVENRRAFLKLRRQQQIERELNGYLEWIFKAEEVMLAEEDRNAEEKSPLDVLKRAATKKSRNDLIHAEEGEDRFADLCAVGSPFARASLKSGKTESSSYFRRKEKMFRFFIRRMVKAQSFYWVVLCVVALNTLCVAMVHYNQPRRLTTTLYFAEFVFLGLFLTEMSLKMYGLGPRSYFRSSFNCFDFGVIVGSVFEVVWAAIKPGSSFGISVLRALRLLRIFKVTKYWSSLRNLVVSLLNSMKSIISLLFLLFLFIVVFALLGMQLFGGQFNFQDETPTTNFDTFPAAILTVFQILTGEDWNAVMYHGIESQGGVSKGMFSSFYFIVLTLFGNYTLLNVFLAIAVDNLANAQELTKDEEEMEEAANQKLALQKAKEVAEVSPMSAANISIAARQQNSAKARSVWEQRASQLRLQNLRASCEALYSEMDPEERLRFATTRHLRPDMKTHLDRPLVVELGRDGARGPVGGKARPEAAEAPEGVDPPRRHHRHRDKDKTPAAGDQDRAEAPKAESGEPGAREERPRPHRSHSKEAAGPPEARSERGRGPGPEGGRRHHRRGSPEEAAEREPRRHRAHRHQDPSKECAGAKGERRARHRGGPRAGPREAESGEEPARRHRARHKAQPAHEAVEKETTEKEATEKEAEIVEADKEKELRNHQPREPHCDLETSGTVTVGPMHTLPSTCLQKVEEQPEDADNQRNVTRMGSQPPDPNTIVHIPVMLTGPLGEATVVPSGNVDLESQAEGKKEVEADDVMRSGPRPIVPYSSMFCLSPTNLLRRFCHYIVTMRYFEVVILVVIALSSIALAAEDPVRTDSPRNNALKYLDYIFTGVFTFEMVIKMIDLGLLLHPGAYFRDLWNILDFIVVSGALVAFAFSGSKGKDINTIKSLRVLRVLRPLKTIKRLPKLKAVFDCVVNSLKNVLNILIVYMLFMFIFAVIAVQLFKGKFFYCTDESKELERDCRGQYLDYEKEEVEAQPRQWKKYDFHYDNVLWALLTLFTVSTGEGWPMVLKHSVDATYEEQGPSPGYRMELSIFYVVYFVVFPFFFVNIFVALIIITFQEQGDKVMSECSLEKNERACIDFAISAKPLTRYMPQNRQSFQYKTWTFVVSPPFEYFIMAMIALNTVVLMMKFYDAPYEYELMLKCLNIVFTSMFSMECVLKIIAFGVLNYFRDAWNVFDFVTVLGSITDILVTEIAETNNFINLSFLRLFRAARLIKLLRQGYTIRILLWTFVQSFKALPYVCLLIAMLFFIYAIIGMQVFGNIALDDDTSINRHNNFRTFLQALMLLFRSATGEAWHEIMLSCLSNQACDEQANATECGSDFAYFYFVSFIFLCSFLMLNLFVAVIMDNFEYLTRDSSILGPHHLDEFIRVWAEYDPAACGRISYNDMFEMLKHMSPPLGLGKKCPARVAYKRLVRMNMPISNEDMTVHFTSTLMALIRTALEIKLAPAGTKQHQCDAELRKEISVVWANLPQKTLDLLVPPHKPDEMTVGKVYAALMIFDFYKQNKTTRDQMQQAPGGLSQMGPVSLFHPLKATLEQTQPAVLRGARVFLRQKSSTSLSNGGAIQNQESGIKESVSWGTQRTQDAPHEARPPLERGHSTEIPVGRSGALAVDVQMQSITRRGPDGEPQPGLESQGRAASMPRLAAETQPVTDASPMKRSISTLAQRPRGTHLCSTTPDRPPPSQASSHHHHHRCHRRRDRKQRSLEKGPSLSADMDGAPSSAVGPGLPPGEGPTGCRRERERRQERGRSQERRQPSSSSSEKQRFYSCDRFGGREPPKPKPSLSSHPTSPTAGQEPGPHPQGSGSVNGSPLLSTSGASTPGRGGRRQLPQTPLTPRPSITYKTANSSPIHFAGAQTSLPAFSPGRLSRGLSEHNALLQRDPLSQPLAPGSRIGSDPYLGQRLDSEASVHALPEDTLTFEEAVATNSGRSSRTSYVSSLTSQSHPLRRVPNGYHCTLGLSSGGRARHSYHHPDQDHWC
# T4 sequence (Q02410 whole entry): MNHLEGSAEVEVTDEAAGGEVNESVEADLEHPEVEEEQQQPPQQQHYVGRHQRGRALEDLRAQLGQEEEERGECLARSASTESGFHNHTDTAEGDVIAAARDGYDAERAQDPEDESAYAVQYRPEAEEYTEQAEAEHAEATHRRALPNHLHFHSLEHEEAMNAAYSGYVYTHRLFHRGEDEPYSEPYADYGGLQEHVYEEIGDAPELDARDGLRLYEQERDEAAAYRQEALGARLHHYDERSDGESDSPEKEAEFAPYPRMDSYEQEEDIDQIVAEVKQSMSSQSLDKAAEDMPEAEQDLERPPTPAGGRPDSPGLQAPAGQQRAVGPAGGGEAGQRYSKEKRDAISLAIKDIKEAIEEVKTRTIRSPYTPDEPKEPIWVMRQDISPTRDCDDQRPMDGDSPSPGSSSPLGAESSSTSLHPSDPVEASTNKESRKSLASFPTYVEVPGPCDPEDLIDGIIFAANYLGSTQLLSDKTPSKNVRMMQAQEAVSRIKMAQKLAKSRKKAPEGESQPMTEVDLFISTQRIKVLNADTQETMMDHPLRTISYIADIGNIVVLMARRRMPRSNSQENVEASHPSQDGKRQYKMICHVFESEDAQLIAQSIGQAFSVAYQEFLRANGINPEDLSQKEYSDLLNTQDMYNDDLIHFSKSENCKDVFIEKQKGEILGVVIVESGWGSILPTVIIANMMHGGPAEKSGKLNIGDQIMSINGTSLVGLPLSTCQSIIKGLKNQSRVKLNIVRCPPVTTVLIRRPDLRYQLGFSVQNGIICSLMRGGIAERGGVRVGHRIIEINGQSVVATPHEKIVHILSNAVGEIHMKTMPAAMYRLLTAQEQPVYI
# Chain of Phosphomannomutase 2 (O15305 whole entry): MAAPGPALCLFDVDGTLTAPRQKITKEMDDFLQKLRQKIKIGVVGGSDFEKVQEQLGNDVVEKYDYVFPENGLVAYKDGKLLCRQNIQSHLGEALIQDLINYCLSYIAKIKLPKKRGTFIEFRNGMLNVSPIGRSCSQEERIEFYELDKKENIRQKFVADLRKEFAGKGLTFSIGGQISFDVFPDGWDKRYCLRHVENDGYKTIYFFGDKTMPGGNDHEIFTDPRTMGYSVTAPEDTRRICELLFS
# Chain of Eukaryotic translation initiation factor 4E (P63073 whole entry): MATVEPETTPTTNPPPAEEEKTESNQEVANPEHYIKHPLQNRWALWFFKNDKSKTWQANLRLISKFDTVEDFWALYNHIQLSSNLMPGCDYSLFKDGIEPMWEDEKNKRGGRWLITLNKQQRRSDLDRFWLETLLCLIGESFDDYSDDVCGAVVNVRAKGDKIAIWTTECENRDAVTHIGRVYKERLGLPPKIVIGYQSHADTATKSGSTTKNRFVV
# Chain of Melanin-concentrating hormone receptor 1 (Q99705 whole entry): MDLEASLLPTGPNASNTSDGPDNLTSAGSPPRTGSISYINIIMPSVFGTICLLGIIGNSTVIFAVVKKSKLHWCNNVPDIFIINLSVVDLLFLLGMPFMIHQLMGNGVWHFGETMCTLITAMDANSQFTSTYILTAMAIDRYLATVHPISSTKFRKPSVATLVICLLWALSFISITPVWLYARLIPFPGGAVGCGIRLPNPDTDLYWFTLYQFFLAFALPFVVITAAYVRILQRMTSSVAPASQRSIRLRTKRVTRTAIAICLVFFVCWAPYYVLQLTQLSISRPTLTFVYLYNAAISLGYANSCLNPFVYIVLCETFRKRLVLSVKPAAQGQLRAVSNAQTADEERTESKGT
# Chain of Phosphoethanolamine/phosphocholine phosphatase (Q8TCT1 whole entry): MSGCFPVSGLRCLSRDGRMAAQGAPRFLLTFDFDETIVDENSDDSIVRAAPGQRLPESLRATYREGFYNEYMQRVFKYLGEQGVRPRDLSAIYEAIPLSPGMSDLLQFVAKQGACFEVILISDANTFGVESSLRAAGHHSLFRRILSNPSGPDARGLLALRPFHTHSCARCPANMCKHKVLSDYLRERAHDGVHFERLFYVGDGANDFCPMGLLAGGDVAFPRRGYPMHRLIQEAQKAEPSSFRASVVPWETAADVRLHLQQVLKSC
# Chain of Envelope glycoprotein gp160 (Q6QLK5 whole entry, the tested form may be a part): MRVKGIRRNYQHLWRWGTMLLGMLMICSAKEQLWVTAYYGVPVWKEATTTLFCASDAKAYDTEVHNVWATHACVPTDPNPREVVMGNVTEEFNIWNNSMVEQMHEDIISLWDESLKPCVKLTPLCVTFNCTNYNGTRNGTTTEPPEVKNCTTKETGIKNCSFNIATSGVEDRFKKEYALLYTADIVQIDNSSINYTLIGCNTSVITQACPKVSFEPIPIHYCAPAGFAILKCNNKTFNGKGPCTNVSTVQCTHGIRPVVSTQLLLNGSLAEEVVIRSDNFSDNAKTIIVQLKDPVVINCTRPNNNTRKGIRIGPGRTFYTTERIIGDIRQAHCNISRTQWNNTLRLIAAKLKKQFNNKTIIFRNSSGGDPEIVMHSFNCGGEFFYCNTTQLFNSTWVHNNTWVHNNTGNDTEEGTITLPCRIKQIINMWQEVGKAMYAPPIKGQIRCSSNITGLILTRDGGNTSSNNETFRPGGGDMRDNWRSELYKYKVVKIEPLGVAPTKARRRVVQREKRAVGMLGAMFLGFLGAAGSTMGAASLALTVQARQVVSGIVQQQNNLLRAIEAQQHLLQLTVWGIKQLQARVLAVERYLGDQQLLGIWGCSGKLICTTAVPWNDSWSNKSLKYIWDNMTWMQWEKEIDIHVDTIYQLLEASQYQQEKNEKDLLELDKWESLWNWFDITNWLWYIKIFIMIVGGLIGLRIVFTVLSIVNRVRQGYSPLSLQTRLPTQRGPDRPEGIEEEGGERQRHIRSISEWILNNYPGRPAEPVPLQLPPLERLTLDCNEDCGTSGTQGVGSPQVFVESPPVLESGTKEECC
compound,measurement,setting,value
CCS(=O)(=O)C1=NSC2=NC(=O)/C(=C\c3cc(C)n(-c4cccc(OC)c4)c3C)C(=N)N21,IC50,[1],> 99 µM (inactive)
same,EC50,[2],> 120 µM (not active)
same,EC50,[3],> 120 µM (not active)
same,EC50,H4,> 120 µM (not active)
same,IC50,[4],5.1 µM (active)
same,EC50,[5],> 53 µM (inactive)
same,IC50,[6],6.75 µM (active)
c1ccc(C2Nc3ccccc3C3OCCCC23)cc1 (stereo not drawn),IC50,[7],7.36 µM (active)
O=c1c2c([N+](=O)[O-])cc([N+](=O)[O-])cc2sn1-c1ccc(Br)cc1,IC50,[8],12.2 µM (active)
same,IC50,Phosphomannomutase 2,10.8 µM (active)
same,IC50,[9],72.5 nM (active)
same,IC50,[10],8.14 µM (active)
O=C(C1CCCCN1Cc1cccc(Cl)c1Cl)N1CCN(c2ccc([N+](=O)[O-])cc2)CC1 (stereo not drawn),IC50,[11],3.3 µM (active)
same,IC50,[12],4.4 µM (active)
O=C(NC1CCC(c2ccccc2)CC1)c1cc(-c2ccco2)nc2ccccc12 (stereo not drawn),IC50,[13],25.5 µM (active)
same,IC50,[14],5.59 µM (active)
N#C/C(C(N)=O)=c1/ccc2c(c1)N1C3=C(CCCC3)CC3CCCCC31N=2 (stereo not drawn),EC50,[15],8.74 µM (inconclusive)
same,IC50,Bcl-2-like protein 10,> 50 µM (inactive)
same,EC50,[16],4.01 µM (active)
same,AC50,[17],10.2 µM (active)
same,IC50,[18],72.7 µM (inactive)
same,IC50,Protein Tat,> 100 µM (inconclusive)
same,CC50,[19],33.5 µM (active)
